Experimental data: PubChem BioAssay AID588355 (Sanford-Burnham Center for Chemical Genomics, 2011)
Active and inactive are the calls of the source.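 The calls were made as follows: active = IC50 below 20 µM in the confirmatory dose-response test; inactive = the rest.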

Molecular target: Hexokinase HKDC1 (Homo sapiens) (UniProt Q2TB90)
Test: analog inhibition of human HKDC1 activity – biochemical, set 2, SAR follow-up (AID 588355)
Settings: recombinant HKDC1, G6PDH/diaphorase/resazurin coupled fluorescence

Hexokinase HKDC1 (Homo sapiens), sequence (Q2TB90 whole entry, looked up): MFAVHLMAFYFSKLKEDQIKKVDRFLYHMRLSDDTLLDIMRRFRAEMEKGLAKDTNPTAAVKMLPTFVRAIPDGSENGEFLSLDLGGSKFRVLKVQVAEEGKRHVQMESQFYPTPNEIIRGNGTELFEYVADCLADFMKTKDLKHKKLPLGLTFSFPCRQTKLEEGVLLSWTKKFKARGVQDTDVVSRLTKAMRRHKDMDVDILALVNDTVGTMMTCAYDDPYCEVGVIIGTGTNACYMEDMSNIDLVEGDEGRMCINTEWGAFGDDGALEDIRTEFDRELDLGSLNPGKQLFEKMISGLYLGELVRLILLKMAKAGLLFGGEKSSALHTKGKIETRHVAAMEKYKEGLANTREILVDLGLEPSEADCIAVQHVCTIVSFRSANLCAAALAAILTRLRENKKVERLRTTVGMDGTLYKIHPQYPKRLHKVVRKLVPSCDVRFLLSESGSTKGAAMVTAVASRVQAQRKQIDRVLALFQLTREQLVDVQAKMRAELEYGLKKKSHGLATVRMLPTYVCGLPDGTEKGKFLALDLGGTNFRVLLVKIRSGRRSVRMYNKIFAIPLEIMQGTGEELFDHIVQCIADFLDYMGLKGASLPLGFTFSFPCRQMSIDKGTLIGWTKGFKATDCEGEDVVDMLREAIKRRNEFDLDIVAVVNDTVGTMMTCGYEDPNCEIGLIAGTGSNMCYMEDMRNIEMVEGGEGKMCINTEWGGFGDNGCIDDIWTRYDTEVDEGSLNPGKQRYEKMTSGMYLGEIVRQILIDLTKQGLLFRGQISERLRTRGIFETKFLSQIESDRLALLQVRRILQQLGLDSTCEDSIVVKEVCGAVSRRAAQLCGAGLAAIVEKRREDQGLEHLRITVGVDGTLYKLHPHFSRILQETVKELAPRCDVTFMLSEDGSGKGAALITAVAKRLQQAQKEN

- IC50: inactive
Compound: COc1cc2c(cc1OC)-c1cc(N3CCc4ccccc4C3)nc(=O)n1CC2
